Test results from publication PMC4077001, “Purification and characterization of a novel lipopeptide from Streptomyces amritsarensis sp. nov. active against methicillin-resistant Staphylococcus aureus” (AMB Express, 2014).
Values after ≈ are worked out from the molar mass of the structure shown. Ends that are not written are not given here.

Legend:
[1] = tested on: Chinese hamster ovary (CHO) cell line; experiment: cells; format: cell-based; conditions: 48 h; for growth inhibition: SRB, OD 540 nm
Method: In vitro cytotoxicity was evaluated using sulforhodamine B dye assay (Skehan et al. [1990]). The Chinese hamster ovary cell line (CHO) was used for the assay. Camptothecin (CPT), an anticancer drug was used as standard. The 96-well tissue culture plate, containing different concentrations of lipopeptide (2.5- 25 μg/ml) and CHO cells, was incubated for 48 h and the cell growth was stopped with trichloroacetic acid (50% TCA, 50 μl). The optical density (OD) was recorded at 540 nm on ELISA reader and percent growth inhibition was calculated.

[2] = tested on: Staphylococcus epidermidis (MTCC 435); experiment: Kirby-Bauer disk diffusion susceptibility test; format: cell-based; conditions: 10 μg lipopeptide per 6 mm disc, Mueller-Hinton agar, 24-48 h; duplicates, repeated thrice
Method: (§1) Sensitivity of test organisms to purified lipopeptide was measured in terms of zone of inhibition using Kirby-Bauer disk diffusion susceptibility test (Bauer et al. [1966]). The plates containing Mueller-Hinton agar, yeast malt agar and potato dextrose agar were seeded with test bacteria, yeasts and fungi, respectively. Filter paper discs (6 mm) impregnated with 10 μg of lipopeptide were placed on media plates. The diameter of the resultant zone of inhibition was measured in mm after 24- 48 hours of incubation. Each experiment was performed in duplicates and repeated thrice. Various test organisms used in the study included Bacillus subtilis (MTCC 619), Mycobacterium smegmatis (MTCC 6), Staphylococcus epidermidis (MTCC 435), Escherichia coli (MTCC 1885), Klebsiella pneumoniae sub sp. pneumoniae (MTCC 109), Enterobacter aerogenes (MTCC 111), Salmonella typhi (MTCC 733), multi-drug resistant E. coli, MRSA, VRE, Candida albicans (MTCC 3017), Rhodotorula rubra (MTCC 248), Colletotrichum acutatum (MTCC 1037), Cercospora beticola (GenBank acc. no. KJ461435), Fusarium oxysporum f.sp. dianthi (MTCC 6659), and Alternaria brassicicola (MTCC 2102).

[3] = tested on: Mycobacterium smegmatis (MTCC 6); experiment: Kirby-Bauer disk diffusion susceptibility test; format: cell-based; conditions: 10 μg lipopeptide per 6 mm disc, Mueller-Hinton agar, 24-48 h; duplicates, repeated thrice
Method: as §1

[4] = tested on: tested Gram-negative bacteria; experiment: Kirby-Bauer disk diffusion susceptibility test; format: cell-based; conditions: 10 μg per disc
Method: as §1

[5] = tested on: Bacillus subtilis (MTCC 619); experiment: Kirby-Bauer disk diffusion susceptibility test; format: cell-based; conditions: 10 μg lipopeptide per 6 mm disc, Mueller-Hinton agar, 24-48 h; duplicates, repeated thrice
Method: as §1

fungi = experiment: Kirby-Bauer disk diffusion susceptibility test; format: cell-based; conditions: 10 μg per disc
Method: as §1

[6] = Qualitative drop-collapse test; format: physicochemical; conditions: 2 μl mineral oil, 5 μl lipopeptide (10 μg, dissolved in water), drop shape after 1 min
Method: (§2) Biosurfactant property of lipopeptide was determined using the qualitative drop-collapse test (Youssef et al. [2004]). In this method, mineral oil (2 μl) was added to 96-well microtitre plate. The plate was equilibrated for 1 h at 37°C and 5 μl of the lipopeptide (10 μg, dissolved in water) was added to the surface of the oil and drop shape was observed after 1 min. The surface tension of a lipopeptide (0.2%, w/v) was measured using Du-Nouy-Ring method (Du Noüy and Pierre [1925]).

trypsin [7] = molecular target: T1, trypsin (Bos taurus, UniProt P00760); conditions: lipopeptide 1.0 mg/ml + trypsin (~10,000 U/mg) 1.0 mg/ml in 50 mM phosphate buffer pH 7.0, equal volumes (20 μl each), 37°C, 12 h; residual activity by disc diffusion
T1 sequence (P00760 24-246): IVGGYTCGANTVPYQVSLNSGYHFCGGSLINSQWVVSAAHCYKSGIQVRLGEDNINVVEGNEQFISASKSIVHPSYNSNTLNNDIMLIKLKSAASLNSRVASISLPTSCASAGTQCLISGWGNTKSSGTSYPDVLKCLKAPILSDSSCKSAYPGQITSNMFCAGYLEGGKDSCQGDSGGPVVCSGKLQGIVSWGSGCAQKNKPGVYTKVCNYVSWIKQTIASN
Method: (§3) Sensitivity to temperature was determined by incubating the purified lipopeptide at different temperatures viz. 50°C, 60°C, 70°C, 80°C , 90°C, 100°C and 121°C for different durations. To determine the optimum pH for activity, purified compound was incubated over pH range of 3.0–12.0 for 30 min at 37°C. The sensitivity of the lipopeptide (1.0 mg/ml) to enzymes was tested against proteinase K (~30 U/mg), trypsin (~10,000 U/mg) and lipase (~9 U/mg). All enzymes were purchased from Sigma Aldrich. Enzyme solutions were prepared at 1.0 mg/ml in 50 mM phosphate buffer (pH 7.0). Equal volumes of enzyme solution and antimicrobial compound (20 μl each) were mixed and incubated at 37°C for 12 h. The enzyme reaction was terminated by heating reaction mixture at 80°C and residual activity was determined by disc diffusion method.

lipase [8] = conditions: lipopeptide 1.0 mg/ml + lipase (~9 U/mg) 1.0 mg/ml in 50 mM phosphate buffer pH 7.0, equal volumes (20 μl each), 37°C, 12 h; residual activity by disc diffusion
Method: as §3

[9] = Surface tension, Du-Nouy-Ring method; format: physicochemical; conditions: lipopeptide 0.2% (w/v), lowered from 72
Method: as §2

proteinase K = molecular target: T2, proteinase K (Parengyodontium album, UniProt P06873); experiment: Sensitivity to enzymes; format: in vitro ADME; conditions: lipopeptide 1.0 mg/ml + proteinase K (~30 U/mg) 1.0 mg/ml in 50 mM phosphate buffer pH 7.0, equal volumes (20 μl each), 37°C, 12 h; residual activity by disc diffusion
T2 construct: purchased Sigma Aldrich
Source text: (§4) All enzymes were purchased from Sigma Aldrich.

[10] = tested on: Staphylococcus epidermidis (MTCC 435); experiment: MIC, microtiter plate dilution assay; format: cell-based; conditions: 37°C, OD 600 nm at 24 and 48 h, triplicates
Method: (§5) The MIC of purified lipopeptide was evaluated by using a microtiter plate dilution assay. Test bacteria were grown to logarithmic phase under optimal conditions (up to 0.3 OD) and the test was performed in triplicates. To each well of the microtiter plate, 200 μl of fresh nutrient medium and 50 μl of bacterial suspension were added. Subsequently, different dilutions (50 μl) of freshly prepared samples were added to each well. The first column of the microtiter plate was left as a blank, containing fresh medium only. The microtiter plates were incubated at 37°C and OD was measured at 600 nm at 24 and 48 h using ELISA microplate reader (Bio-rad, Model 680XR).

[11] = tested on: Mycobacterium smegmatis (MTCC 6); experiment: MIC, microtiter plate dilution assay; format: cell-based; conditions: 37°C, OD 600 nm at 24 and 48 h, triplicates
Method: as §5

[12] = tested on: Methicillin Resistant Staphylococcus aureus (MRSA); experiment: MIC, microtiter plate dilution assay; format: cell-based; conditions: clinical strain, 37°C, OD 600 nm at 24 and 48 h, triplicates
Method: as §5

[13] = tested on: Bacillus subtilis (MTCC 619); experiment: MIC, microtiter plate dilution assay; format: cell-based; conditions: 37°C, OD 600 nm at 24 and 48 h, triplicates
Method: as §5

Heat stability assay = format: physicochemical; conditions: for Residual activity (%): residual antimicrobial activity
Source text: as §4

[14] = Effect of pH on lipopeptide activity; format: physicochemical; conditions: for Residual activity (%): residual antimicrobial activity
Source text: as §4

MRSA = experiment: Kirby-Bauer disk diffusion susceptibility test; format: cell-based, Staphylococcus aureus; conditions: clinical isolate; 10 μg lipopeptide per 6 mm disc, Mueller-Hinton agar, 24-48 h; duplicates, repeated thrice
Method: as §1

[15] = tested on: Salmonella typhimurium (TA98); experiment: Ames test (Salmonella reverse mutation test); format: cell-based
Method: Mutagenicity of the lipopeptide was evaluated by Ames test (Maron and Ames [1983]). This Salmonella reverse mutation test is based on histidine dependence and mutations in Salmonella typhimurium (TA98/ MTCC 1251, IMTECH, Chandigarh). Concentrations of the lipopeptide used for checking toxicity were 50 and 100 μg 0.1 ml^−1 plate^−1. The overnight grown, 0.1 ml bacterial culture and 0.1 ml of lipopeptide were added to 2.0 ml of top agar. The contents were mixed and poured onto glucose minimal agar plates immediately. The plates were […] incubated at 37°C for 48 h. The experiment was repeated to confirm the results. To determine the spontaneous reversion which is characteristic of the tester strain (TA 98), negative control (0.1 ml bacterial culture + 0.1 ml DMSO plate^−1) was run while 4-Nitro-o-phenylenediamine (20 μg 0.1 ml^−1 plate^−1) was used as a positive control mutagen. The mutagenic potential of the lipopeptide was determined by comparing the number of colonies with control plates where no test compound was added.

lipase [16] = conditions: ref Guo et al. 2012; cited from earlier work
Source text: (§6) Antimicrobial lipopeptides have been purified from many bacterial genera including several Streptomyces spp. such as S. violaceus var. aspartocinius (aspartocin), S. griseoflavus (tsushimycin), S. viridochromogens (laspartomycin), S. coelicolor (calcium-dependent antibiotic), S. roseosporus (daptomycin), S. fradiae (A54145), S. parvulus var. parvuli (parvuline) and S. canus (amphomycin) (Schneider et al. [2009]). The present study reports the production of another novel lipopeptide from a Streptomyces sp. The primary structure of lipopeptide was determined using a combination of chemical rea ...

trypsin [17] = molecular target: T1, trypsin; parameters: purchased Sigma Aldrich; conditions: ref Guo et al. 2012; cited from earlier work
Source text: as §6

T2 sequence (P06873 106-384): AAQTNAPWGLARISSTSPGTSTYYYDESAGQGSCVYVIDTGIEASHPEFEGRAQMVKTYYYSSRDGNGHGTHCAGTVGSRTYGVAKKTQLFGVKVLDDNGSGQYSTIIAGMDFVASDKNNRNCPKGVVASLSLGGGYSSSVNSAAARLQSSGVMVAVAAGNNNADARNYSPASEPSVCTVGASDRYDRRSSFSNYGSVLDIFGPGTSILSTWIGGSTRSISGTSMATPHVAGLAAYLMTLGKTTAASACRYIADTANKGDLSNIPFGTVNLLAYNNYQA

ATGSHQ [lipopeptide, novel antimicrobial lipopeptide from Streptomyces amritsarensis; Ala-Thr-Gly-Ser-His-Gln, C-terminal amino acid linked to aliphatic chain -(CH2)7-CH2-(CH3)2-]
growth inhibition ([1]; 2.5 μg/ml): 2.9%
growth inhibition ([1]; 6.25 μg/ml): 16.8%
growth inhibition ([1]; 12.5 μg/ml): 19.25%
growth inhibition ([1]; 18.75 μg/ml): 23.28%
growth inhibition ([1]; 25 μg/ml): 28.9%
inhibition zone [2]: 17 mm
inhibition zone [3]: 15 mm
antimicrobial activity [4]: did not show activity
inhibition zone [5]: 21 mm
antimicrobial activity (fungi): did not show activity
drop-collapse test [6]: collapsed the oil drop
stability to trypsin (trypsin [7]): resistant
stability to lipase (lipase [8]): resistant
surface tension of water [9]: 37 mN m^−1
stability to proteinase K (proteinase K): negligible loss in activity
MIC [10]: 15 mg/L
MIC [11]: 25 mg/L
MIC [12]: 45 mg/L
MIC [13]: 10 mg/L
Residual activity (%) (Heat stability assay; 50°C, 1 h): 100%
Residual activity (%) (Heat stability assay; 60°C, 1 h): 100%
heat stability (Heat stability assay; 70°C for 1 h): completely stable
Residual activity (%) (Heat stability assay; 70°C, 1 h): 100%
Residual activity (%) (Heat stability assay; 80°C, 1 h): 84.2%
Residual activity (%) (Heat stability assay; 90°C, 15 min): 95.0%
Residual activity (%) (Heat stability assay; 100°C, 15 min): 86.3%
loss of activity (Heat stability assay; 100°C, 15 minutes incubation): 13.7%
Residual activity (%) (Heat stability assay; 121°C, 15 min (304 KPa), autoclaving): 81.8%
reduction of antimicrobial activity (Heat stability assay; after autoclaving (121°C for 15 min)): 18.2%
change in activity profile ([14]; between pH 5.0–9.0): did not show any change
Residual activity (%) ([14]; pH 2, 1 h/4°C): 0%
Residual activity (%) ([14]; pH 3, 1 h/4°C): 72.7%
Residual activity (%) ([14]; pH 4, 1 h/4°C): 84.6%
Residual activity (%) ([14]; pH 5, 1 h/4°C): 100%
Residual activity (%) ([14]; pH 6, 1 h/4°C): 100%
Residual activity (%) ([14]; pH 7, 1 h/4°C): 100%
Residual activity (%) ([14]; pH 8, 1 h/4°C): 100%
Residual activity (%) ([14]; pH 9, 1 h/4°C): 100%
Residual activity (%) ([14]; pH 10, 1 h/4°C): 86.3%
Residual activity (%) ([14]; pH 11, 1 h/4°C): 68.1%
Residual activity (%) ([14]; pH 12, 1 h/4°C): 0%
inhibition zone (MRSA): 13 mm
mutagenicity ([15]; 50 and 100 μg/0.1 ml per plate, 48 hours at 37°C): non-mutagenic

CC[C@@]1(O)C(=O)OCc2c1cc1n(c2=O)Cc2cc3ccccc3nc2-1 [camptothecin, Camptothecin, reference compound]
IC50 ([1]; Cricetulus griseus, CHO cells, SRB assay): 0.959 mg/L (≈ 2.75 µM)

Nc1ccc([N+](=O)[O-])cc1N [positive mutagen, 4-Nitro-o-phenylenediamine, reference compound]
number of revertant colonies ([15]; positive control, 20 μg plate^-1, compared with negative control): considerably higher

paenibacterin
resistance to lipase (lipase [16]): resistant
resistance to trypsin (trypsin [17]): resistant
